Source: ChEMBL document CHEMBL5226375, “Synthesis and Comprehensive in Vivo Activity Profiling of Olean-12-en-28-ol, 3β-Pentacosanoate in Experimental Autoimmune Encephalomyelitis: A Natural Remyelinating and Anti-Inflammatory Agent” (J Nat Prod, 2023)
The source made the active and inactive calls. No cut-off for these calls is given here.

Key:
[1] = tested on: Mus musculus; assay: Anti-inflammatory activity against MOG35-55-induced experimental autoimmune encephalomyelitis C57BL/6 mouse model assessed as reduction in serum Th1 cytokine level by measuring reduction in IL-2 level at 600 mg/kg/day, ig for 14 days starting from 12th day of immunization by ELISA; type: functional, organism-based; details: time 14.0 day
[2] = tested on: Mus musculus; assay: Anti-inflammatory activity against MOG35-55-induced experimental autoimmune encephalomyelitis C57BL/6 mouse model assessed as fold change in YWHAH gene expression in brain at 600 mg/kg/day, ig for 14 days starting from 12th day of immunization by RT-qPCR analysis relative to control; type: functional; details: time 14 day
[3] = tested on: Mus musculus; assay: Anti-inflammatory activity against MOG35-55-induced experimental autoimmune encephalomyelitis C57BL/6 mouse model assessed as fold change in IL6 gene expression in brain at 600 mg/kg/day, ig for 14 days starting from 12th day of immunization by RT-qPCR analysis relative to control; type: functional; details: time 14 day
[4] = tested on: Mus musculus; assay: Anti-inflammatory activity against MOG35-55-induced experimental autoimmune encephalomyelitis C57BL/6 mouse model assessed as fold change in MAG gene expression in brain at 600 mg/kg/day, ig for 14 days starting from 12th day of immunization by RT-qPCR analysis relative to control; type: functional; details: time 14 day
[5] = tested on: Mus musculus; assay: Anti-inflammatory activity against MOG35-55-induced experimental autoimmune encephalomyelitis C57BL/6 mouse model assessed as fold change in HIF1A gene expression in brain at 600 mg/kg/day, ig for 14 days starting from 12th day of immunization by RT-qPCR analysis relative to control; type: functional; details: time 14 day
[6] = tested on: Mus musculus; assay: Anti-inflammatory activity against MOG35-55-induced experimental autoimmune encephalomyelitis C57BL/6 mouse model assessed as fold change in HIF1A gene expression in brain at 0.3 mg/kg/day, ig for 14 days starting from 12th day of immunization by RT-qPCR analysis relative to control; type: functional; details: time 14 day
[7] = tested on: Mus musculus; assay: Anti-inflammatory activity against MOG35-55-induced experimental autoimmune encephalomyelitis C57BL/6 mouse model assessed as fold change in GFAP gene expression in brain at 0.3 mg/kg/day, ig for 14 days starting from 12th day of immunization by RT-qPCR analysis relative to control; type: functional; details: time 14 day
[8] = tested on: Mus musculus; assay: Anti-inflammatory activity against MOG35-55-induced experimental autoimmune encephalomyelitis C57BL/6 mouse model assessed as fold change in YWHAH gene expression in brain at 0.15 mg/kg/day, ig for 14 days starting from 12th day of immunization by RT-qPCR analysis relative to control; type: functional; details: time 14 day
[9] = tested on: Mus musculus; assay: Anti-inflammatory activity against MOG35-55-induced experimental autoimmune encephalomyelitis C57BL/6 mouse model assessed as fold change in MAG gene expression in brain at 0.3 mg/kg/day, ig for 14 days starting from 12th day of immunization by RT-qPCR analysis relative to control; type: functional; details: time 14 day
[10] = tested on: Mus musculus; assay: Anti-inflammatory activity against MOG35-55-induced experimental autoimmune encephalomyelitis C57BL/6 mouse model assessed as reduction in serum chemokines level by measuring reduction in FASL level at 0.3 mg/kg/day, ig for 14 days starting from 12th day of immunization by ELISA; type: functional, organism-based; details: time 14.0 day

Row | Structure (SMILES) | Activity [1] | fold change (FC) [2] | fold change (FC) [3] | fold change (FC) [4] | fold change (FC) [5] | fold change (FC) [6] | fold change (FC) [7] | fold change (FC) [8] | fold change (FC) [9] | Activity [10]
1 | CCCCCCCCCCCCCCCCCCCCCCCCC(=O)O[C@H]1CC[C@]2(C)[C@H]3CC=C4[C@@H]5CC(C)(C)CC[C@]5(CO)CC[C@@]4(C)[C@]3(C)CC[C@H]2C1(C)C | Active | -1.78 | -2.32 | -1.18 | 1.77 |  |  |  |  | 
2 | CCCCCCCCc1ccc(CCC(N)(CO)CO)cc1 [FINGOLIMOD] |  |  |  |  |  | 1.86 | 1.92 | 1.1 | -3.16 | Active
